Laboratory results from US6964958B2, “Method of simultaneously treating sensory auditory gating deficit and associated psychosis in schizophrenia and bipolar disorder patients with mania” (priority 2001, dated 2005).

Tests used:
[1] = system: heterozygous reeler mice (HRM); assay: Prepulse inhibition of startle (PPI) in heterozygous reeler mice; type: in vivo, mouse; settings: for auditory PPI deficit in HRM: heterozygous reeler mice, subcutaneous, imidazenil 0.3, 0.6 mg/kg, 115 db startle, 75 or 80 db prepulse
Description: (§1) The startle apparatus (SR-Lab, San Diego Instruments) consisted of a Plexiglas cylinder resting on a Plexiglas frame within a ventilated soundproof enclosure. Acoustic noise bursts were presented by. speaker 24 cm above the animal. and a piezo-electric device transduced any consequent motion (flinch) within the cylinder. Two stimulus trial types 1) 115 db startle stimulus only; or 2) 115 db stimulus preceded by a 75 or 80 db prepulse 100 msec before startle simulut onset were randomly presented with a mean intertrial interval of 20 sec. Stimuli were 30 msec in duration and were presented over a constant 65 db white noise background also present during a 5-min adaptation period.
(§2) Mean peak amplitude of the flinch response within a 200 msec window following presentation of the 115 db stimulus was calculated separately for each type of startle trial. Ratios reflecting the amount of inhibition due to the prepulse were calculated by dividing the difference between mean amplitude for startle and prepulse trials by the mean for the startle trials. PPI data are commonly presented in this ratio form to control for overall level of the startle reflex itself.
Imidazenil or alprazolam was dissolved in DMSO, combined with oil, and injected subcutaneously at a volume of 0.1 ml/10 gm of body weight. The amount of DMSO was approximately 1% of total volume. Vehicle was prepared similarly and vehicle or drug was administered in counterbalanced order using a within-subject design. Following drug administration, the mouse was placed in an isolated cage for 10-15 min before being placed in the startle apparatus. Animals were tested between 11:00 hr and 15:00 hr.

wild-type mice (WTM) = assay: Prepulse inhibition of startle (PPI) in wild-type mice; type: in vivo, mouse; settings: subcutaneous, 115 db startle, 75 or 80 db prepulse
Description: as §1, §2
Imidazenil or alprazolam was dissolved in DMSO, combined with oil, and injected subcutaneously at a volume of 0.1 ml/10 gm of body weight. The amount of DMSO was approximately 1% of total volume. […]

[2] = FIG. 1 dose-response comparison; cited from earlier work
[3] = system: benzodiazepines binding sites; settings: cited from earlier work
GABAA receptors = settings: cited from earlier work
rats = settings: doses up to 60-fold greater than doses producing anxiolytic and anticonvulsant actions; cited from earlier work
[4] = in nonhuman primates; cited from earlier work
patas monkeys = settings: cited from earlier work

In the case of `Cc1nnc2n1-c1ccc(Cl)cc1C(c1ccccc1)=NC2` [alprazolam, 8chloro-1-methyl-6-phenyl-4-[1,2,4]triazolo[4,3a][1-4]benzodiazepine, reference compound], the “auditory PPI deficit in HRM” value [1] is listed as “failed to revert the PPI deficit in HRM”, the “PPI of WTM” value (wild-type mice (WTM)) is listed as “decreased PPI in WTM” and the “sedation, amnesia, tolerance and dependence liability relative to doses with anxiolytic and anticonvulsant (therapeutic) actions” value [2] is listed as “appear with doses that are very close to those that cause anxiolytic and anticonvulsant actions”.

For `NC(=O)c1ncn2c1CN=C(c1ccccc1Br)c1cc(F)ccc1-2` [imidazenil, 6-(2 bromophenyl)-8-fluoro-4H-imidazo[1,5a][1,4]benzodiazepine-3-carboxamide], the “overall startle level (sedative effect)” value ([1]; doses of imidazenil (0.3, 0.6 mg/kg) that correct the PPI deficit in HRM) was “fail to change the overall startle level”, the “auditory PPI deficit in HRM” value [1] was “corrected the auditory PPI deficit in HRM” and the “PPI of WTM” value (wild-type mice (WTM)) was “no primary effects on the PPI of WTM”. The “affinity for benzodiazepines binding sites” value [3] was “high affinity”, the “action on GABAA alpha1 subunit” value (GABAA receptors; GABAA receptors containing alpha1 subunit) was “does not act on GABAA α1 subunit” and the “efficacy at GABAA receptor subtypes” value (GABAA receptors; at least eight subtypes of GABAA receptors tested) was “partial agonist”. For the same compound, the “intensity of GABA-gated Cl- currents” value (GABAA receptors) was “never maximizes the intensity of GABA-gated Cl^− currents”, the “antagonism of sedative and amnestic actions of alprazolam” value (rats) was “antagonizes the sedative and amnestic actions of alprazolam” and the “T 1/2 (clearance rate)” value [4] was greater than 6 h. The “antagonism of sedative and amnestic actions of alprazolam” value (patas monkeys; monkeys, doses up to 60-fold greater than doses producing anxiolytic and anticonvulsant actions) was “antagonizes the sedative and amnestic actions of alprazolam”, the “tolerance to the effects during treatment” value (patas monkeys; patas monkeys, seventeen day treatment) was “no tolerance” and the “sedation, amnesia, tolerance and dependence liability relative to doses with anxiolytic and anticonvulsant (therapeutic) actions” value [2] was “virtually undetectable”.
